From patent publication US20150337276A1, “ENZYME HAVING A NMDA RECEPTOR ANTAGONIST ACTIVITY AND/OR AN ANTICHOLINERGIC ACTIVITY” (priority 2012, published 2015)

What was measured:
[1] = test system: NMDA receptor; assay: NMDA current recording by patch clamp (whole cell, voltage clamp -30 mV) in dorsal root ganglia nociceptor neurons; type: cell-based, rat; details: for Percentage inhibition of NMDA current: NMDA 250 μM, holding potential -30 mV
Experimental: In one embodiment, the NMDA antagonist activity of the enzyme of the invention is measured by electrophysiology, as shown in Example 3. In one embodiment, said measurement is performed on dorsal root ganglion nociceptor neurons of rats.
The culture conditions of dorsal root ganglia neurons of rats were adapted from Hao and Delmas (J Neurosci. 2010, 6; 30(40)).
NMDA current recordings are performed in neurons of small and medium diameter (nociceptors). Neurons are identified visually and electrophysiologically by measuring their membrane capacitance. […] These neurons express the NMDA receptor in the dorsal root ganglia. Nociceptors are specifically identified by the presence of TTX-resistant Nav1.8 sodium current. Each neuron is tested for the presence upstream of Nav1.8.
NMDA currents are low amplitude currents. Thus, electrical leakage is carefully checked during recording. Infusion or injection of products was performed close to neurons to avoid changes in concentration (dilution effect). Media infusion was extemporaneously daily handled. Products OPN-001 were diluted from stock solutions and stored at 4° C. The data were collected using an Axopatch amplifier 200-B, the Clampex software (PClamp V10, Molecular Device) and stored and analyzed using Clampfit.

[2] = test system: glutamate intoxicated-cortical neurons; assay: Neurite network density (NF-H labeling) of glutamate-intoxicated cortical neurons, neuroprotective effect; type: cell-based, rat; details: intoxicated conditions (glutamate 100 μM, 6 hours)
Experimental: Culture conditions: 37° C., 5% CO2
At DIV9, the reference MK-801 (10 μM) was pre-incubated for 30 minutes before glutamate intoxication. Cortical neurons were then incubated for 6 hours with 100 μM of glutamate in presence or not (intoxicated control) of test compounds, the solvent control or the reference. A control without glutamate (non-intoxicated control) was performed in parallel. All experimental conditions were performed in n=3.
All the images were taken under the same conditions.
Raw data were analyzed with Microsoft Excel® software.

[3] = test system: cortical neurons; assay: Neurite network density (NF-H labeling) of cortical neurons under basal conditions, potential neurotoxic effect; details: enzymes 2.5 μM for 30 hours, glutamate 100 μM for 6 hours

[Cl-].[Cl-].[Zn+2] [ZnCl2]
efficiency in inhibiting NMDA current, in words ([1]; 5 nM, alone): not efficient | time for the blocking effect on NMDA current to occur, in words ([1]; 50 nM and 500 nM): within seconds | inhibition of the NMDA current, trace (FIG. 1B), in words ([1]; 50 nM, 200 μl applied alone, NMDA 250 μM for 80 s): inhibits all of the NMDA current | Percentage inhibition of NMDA current ([1]; test substance 5 nM): 0% | Percentage inhibition of NMDA current ([1]; test substance 50 nM, mean of neurons): 100% | Percentage inhibition of NMDA current ([1]; test substance 500 nM, mean of neurons): 100%

C[C@]12N[C@H](Cc3ccccc31)c1ccccc12 [MK801]
Mean NF-H-positive neurite surface ([2]; enzymes 2.5 μM pre-incubated 24 hours, MK801 10 μM pre-incubated 30 minutes, n=3): 32319 μm^2 | Protection (%) ([2]; enzymes 2.5 μM, MK801 10 μM): ~96%

N[C@@H](CCC(=O)O)C(=O)O [Glutamate]
Mean NF-H-positive neurite surface ([3]; basal conditions (no glutamate), n=3): 21503 μm^2 | Intoxication (%) ([3]; basal conditions, normalized to control): 34%
